The test system of one assay is Na+ channel. The experiment in a line: Patch clamp of sodium current in MPG (major pelvic ganglion) neurons. The format is cell-based, rat. The conditions noted are these: MPG neuron, 10 μM; for selectivity for the calcium channel versus the sodium channel: from Table 3; for Inhibitory effect, Na+ channel: n.i. = no inhibitory effect. On the procedure:
In order to examine the selectivity of the compound of the present invention for other ion channels, the inhibitory effects of KYS05001, KYS05041 and KYS05042 on […] and high voltage-activated Ca2+ channel (HVA) were measured according to a conventional method (Lee, J.-H. et al., J. Neurophysiol. 2002, 87, 2844-2850) using MPG (major pelvic ganglion).
Male Sprague-Dawley rats having about 250 g of an average body weight were employed as experimental animals. After the rats were anesthetized with sodium pentobarbital (50 mg/kg, i.p.), the abdomen was cut open immediately. MPG located on the left side of the prostate was extracted and then transferred in cold (4° C.) Hank's balanced salt solution (HBSS, GibcoBRL). The connective tissue encompassing the ganglion was stripped therefrom and a small gap was made carefully on the naked ganglion with a sharp knife. Then, the ganglion was cultured in 10 ml of modified Earle's balanced salt solution (EBSS, pH 7.4, GibcoBRL) supplemented with 0.7 mg/ml of collagenase (type D), 0.3 mg/ml of trypsin and 0.1 mg/ml of DNAse type I at 35° C. for 1 hour (Zhu et al., J. Physiol. Lond. 1995, 489, 363-375). At this time, 3.6 g/l of glucose and 10 mM HEPES were added to EBSS. After the cultivation was completed, the culture flask was shaken to separate call clusters into a single nerve cell and subjected to centrifugation at 1000 rpm with a clinical centrifuge (International Equipment Company, Mass., U.S.A.). The separated single nerve cells were re-suspended in MEM (GibcoBRL) supplemented with 10% fetal bovine serum, 1% glutamine and 1% penicillin/streptomycin. They were then spread on a polystyrene culture dish (35 mm) coated with poly-L-lysine. The culture dish was incubated at 37° C. humidified incubator (95% air-5% CO2) and the cells were used in the following experiment within 24 hours after the separation.
The voltage-dependent calcium and sodium current were recorded according to a typical patch clamping method using a patch clamp amplifier (Axopatch 1D, Axon Instruments, Foster City, Calif., U.S.A.) at a whole-cell ruptured configuration (Hamill et al., Pflügers Arch. 1981, 391, 85-100). An electrode was made from a borosilicate glass capillary tube (outer diameter; 1.65 mm, inner diameter; 1.2 mm, Corning 7052, Garner Glass Co., Claremont, Calif., U.S.A.) using P-97 Flaming-Brown micropipette puller (Sutter Instrument Co., Novato, Calif., U.S.A.) and forged smoothly by heating with a microforge. The electrode showing 1˜3 MΩ of resistance when filled with a solution was used for the following experiment. The culture dish containing the nerve cells was placed on an inverted microscope and the cell exterior solution was flowed into the dish at a flow rate of about 1˜2 ml/min. The membrane capacitance and series resistance were corrected by 80% or more with an amplifier. The voltage generation and record of calcium current were carried out using S4 software (provided by Dr. Stephen R. Ikeda, National Institute on Alcohol Abuse and Alcoholism, NIH, USA) equipped in Macintosh computer, which was connected to an analogue/digital converter (Digidata 1200, Axon Instruments Co.). The calcium current, which passed through a low band pass filter at 2˜5 kHz, was stored in Macintosh computer and analyzed with IGOR PRO (Wave-Metrics, Lake Oswego, Oreg., U.S.A.). All the experiments were conducted at a room temperature ranging from 20 to 22° C.
The electrode for measuring the calcium current was filled with the solution comprising 120 mM N-methyl-D-glucamine (NMG) methanesulfonate (MS), 20 mM tetraethylammonium (TEA)-MS, 20 mM HCl, 11 mM EGTA, 10 mM HEPES, 1 mM CaCl2, 4 mM MgATP, 0.3 mM Na2GTP and 14 mM tris-phosphocreatine (pH 7.2, 290 mOsm). The extracellular infusion fluid was composed of 140 mM MS, 145 mM TEA-OH, 10 mM HEPES, 15 mM glucose, 10 mM CaCl2 and 0.0003 mM tetrodotoxin (TTX, pH 7.4, 320 mOsm). […]
Background: Patch clamp records ionic current or voltage across a cell membrane.

Assay [1] concerns the target T1, α1G T-type calcium channel (Rattus norvegicus, UniProt O54898).
T1 construct: expressed in transfected cells; Perez-Reyes, University of Virginia
The experiment in a line: Whole cell patch clamp on HEK 293 cells expressing α1G T-type calcium channel. The format is cell-based. The conditions noted are these: for inhibition at 10 µM: HEK293; for channel inhibitory effect relative to Mibefradil (comparing IC50 values): HEK 293 cells (α1G), IC50 compared with Mibefradil; for IC50: read-out: IC50, HEK293 cells (α1G). On the procedure: HEK 293 cells were cultured in Dulbecco's modified Eagle's medium (DMEM) supplemented with 10% fetal bovine serum (FBS) and 1% penicillin/streptomycin (v/v) in 36.5° C. humidified incubator (95% air-5% CO2). The culture solution was replaced with a fresh medium every 3 to 4 days and the cultured cells were subjected to sub-culture every week. At this time, the culture solution was treated with G-418 (0.5 mg/ml) solution so that only HEK 293 cells expressing α1G T-type calcium channel can grow. The cells used for the T-type calcium channel activity assay were cultured on a cover slip coated with poly-L-lysine (0.5 mg/ml) whenever sub-cultured and their calcium channel activity was recorded 2 to 7 days after the cultivation. The current of the T-type calcium channel at a single cell level was measured according to an electrophysiological whole cell patch clamping method using EPC-9 amplifier (HEKA, German). At this time, a cell exterior solution [140 mM NaCl, 2 mM CaCl2, 10 mM HEPES (pH 7.4)] and a cell interior solution [KCl 130 mM, HEPES 10 mM, EGTA 11 mM, MgATP 5 mM (pH 7.4)] were employed. The inward current caused by the T-type calcium channel activation was measured according to a T-type calcium channel protocol activated at low current. Such current occurs when the cells were converted into a whole-cell recording mode by stabbing a microglass electrode having 3-4 MΩ resistance, which was filled with the cell interior solution into a single cell and depolarized at −30 mV (50 ms duration period) every 10 seconds with fixing membrane potential to −100 mV.
In order to confirm whether the cells and methods used in Test Example 2 are a suitable screening system for selecting T-type calcium channel blockers, the results obtained in Example 2 were compared with those of α1G T-type calcium channel study reported in a public document (Monteil, A. et al., J. Biol. Chem. 275, 6090-6100, 2000). […] Thus, the candidate compounds were subjected to a test for their inhibitory effects on the T-type calcium channel according to the screening system of the present invention, as follows. Each compound was dissolved in 100% dimethylsulfoxide (DMSO) to prepare 10 mM stock solution. The inhibitory effect on the T-type calcium channel current was examined in 10 μM sample solution (containing 0.1% DMSO) prepared by diluting the stock solution by 1000-fold. The cells were treated with each compound at a concentration of 10 μM for 30 to 60 sec with the cell exterior solution.

The mark [2] stands for this setting: HEK 293 cells expressing α1G, 30 to 60 sec treatment, read-out: inhibitory effect on peak current, HEK293 cells (α1G) at 10 μM.
Setting [3] is: Table 3 title says MPG neuron, values equal HEK 293 (α1G) values of Table 2, read-out: Inhibitory effect, Ca2+ channel T-type (LVA).

Where two headings read alike, the source gives them in different places.

As usually defined, the IC50 is the concentration that gives 50% inhibition.

T1 sequence (O54898 whole entry): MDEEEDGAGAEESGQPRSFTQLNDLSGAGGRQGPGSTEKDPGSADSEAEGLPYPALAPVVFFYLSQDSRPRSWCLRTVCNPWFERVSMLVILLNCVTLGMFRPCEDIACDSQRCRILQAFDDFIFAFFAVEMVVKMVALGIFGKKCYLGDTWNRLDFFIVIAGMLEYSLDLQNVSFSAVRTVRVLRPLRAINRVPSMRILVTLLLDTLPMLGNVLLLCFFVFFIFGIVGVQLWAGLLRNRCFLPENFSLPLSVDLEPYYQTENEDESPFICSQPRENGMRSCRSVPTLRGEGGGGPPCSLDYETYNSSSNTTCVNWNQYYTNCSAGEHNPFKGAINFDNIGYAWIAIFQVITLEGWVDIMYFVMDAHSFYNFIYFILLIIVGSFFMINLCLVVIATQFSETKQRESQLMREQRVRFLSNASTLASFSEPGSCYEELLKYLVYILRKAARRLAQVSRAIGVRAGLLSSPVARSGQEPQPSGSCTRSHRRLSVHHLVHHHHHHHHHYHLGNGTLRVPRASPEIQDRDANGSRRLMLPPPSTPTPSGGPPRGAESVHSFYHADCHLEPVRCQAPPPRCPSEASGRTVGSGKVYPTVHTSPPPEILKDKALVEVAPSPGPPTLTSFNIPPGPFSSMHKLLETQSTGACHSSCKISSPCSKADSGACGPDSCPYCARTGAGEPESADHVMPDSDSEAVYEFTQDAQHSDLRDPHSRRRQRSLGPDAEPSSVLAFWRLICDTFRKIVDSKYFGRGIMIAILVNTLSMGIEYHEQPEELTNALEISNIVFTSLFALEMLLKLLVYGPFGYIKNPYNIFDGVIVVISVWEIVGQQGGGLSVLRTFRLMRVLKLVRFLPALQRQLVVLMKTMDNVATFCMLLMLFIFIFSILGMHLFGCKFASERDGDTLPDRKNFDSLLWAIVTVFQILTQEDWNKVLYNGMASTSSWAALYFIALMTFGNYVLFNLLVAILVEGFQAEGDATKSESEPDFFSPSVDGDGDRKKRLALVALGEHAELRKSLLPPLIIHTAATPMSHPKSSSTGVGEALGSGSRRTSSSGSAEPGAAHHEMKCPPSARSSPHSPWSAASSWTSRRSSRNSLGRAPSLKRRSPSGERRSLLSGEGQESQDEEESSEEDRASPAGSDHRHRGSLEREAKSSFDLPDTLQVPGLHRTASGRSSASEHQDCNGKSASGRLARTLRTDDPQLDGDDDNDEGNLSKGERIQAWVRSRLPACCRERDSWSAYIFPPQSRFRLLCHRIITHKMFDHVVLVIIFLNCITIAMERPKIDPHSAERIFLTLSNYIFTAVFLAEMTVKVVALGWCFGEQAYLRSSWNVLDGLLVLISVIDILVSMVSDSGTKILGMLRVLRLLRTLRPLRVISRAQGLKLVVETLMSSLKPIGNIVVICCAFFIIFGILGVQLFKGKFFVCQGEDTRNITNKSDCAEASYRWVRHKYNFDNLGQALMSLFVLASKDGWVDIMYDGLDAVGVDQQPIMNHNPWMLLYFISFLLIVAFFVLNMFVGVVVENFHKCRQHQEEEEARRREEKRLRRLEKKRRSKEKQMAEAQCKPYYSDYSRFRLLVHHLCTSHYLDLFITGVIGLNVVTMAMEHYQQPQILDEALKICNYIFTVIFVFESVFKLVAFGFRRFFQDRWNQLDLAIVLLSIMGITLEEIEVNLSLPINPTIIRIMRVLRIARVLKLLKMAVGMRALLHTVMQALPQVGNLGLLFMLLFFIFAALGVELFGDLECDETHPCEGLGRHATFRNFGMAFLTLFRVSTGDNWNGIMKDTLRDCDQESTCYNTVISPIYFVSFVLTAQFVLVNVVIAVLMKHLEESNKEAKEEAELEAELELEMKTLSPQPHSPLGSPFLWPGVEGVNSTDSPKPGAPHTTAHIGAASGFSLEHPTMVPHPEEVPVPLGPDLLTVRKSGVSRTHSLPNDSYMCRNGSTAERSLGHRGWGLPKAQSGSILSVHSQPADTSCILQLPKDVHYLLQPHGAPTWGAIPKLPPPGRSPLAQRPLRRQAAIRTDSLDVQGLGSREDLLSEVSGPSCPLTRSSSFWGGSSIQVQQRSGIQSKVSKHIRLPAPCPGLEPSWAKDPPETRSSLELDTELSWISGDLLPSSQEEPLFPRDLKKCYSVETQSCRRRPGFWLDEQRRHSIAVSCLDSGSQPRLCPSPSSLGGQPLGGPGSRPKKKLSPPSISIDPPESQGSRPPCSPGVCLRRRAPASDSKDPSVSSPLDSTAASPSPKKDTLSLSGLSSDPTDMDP

`O=C(CC1c2ccccc2N=C(N2CCCCC2)N1c1ccccc1)NCc1ccccc1` (stereo not drawn) [KYS05001]: in the assay on Na+ channel, the “selectivity for the calcium channel versus the sodium channel” value is “higher selectivity for the calcium channel than the sodium channel” and the “Inhibitory effect, Na+ channel” value is given as “n.i.^b”. In addition, the inhibition at 10 µM in assay [1] (setting [2]) amounted to 90.1%. In assay [1] (setting [3]), the inhibition at 10 µM worked out at 90.1%. Moreover, the “channel inhibitory effect relative to Mibefradil (comparing IC50 values)” value in assay [1] is “almost the same calcium channel inhibitory effect as Mibefradil”. Also, the 50% inhibitory concentration (IC50) in assay [1] (HEK 293 cells expressing α1G) was 900 nM.

Consider `Cc1ccc(S(=O)(=O)Nc2ccc(CNC(=O)CC3c4ccccc4N=C(N4CCCCC4)N3c3ccccc3)cc2)cc1` (stereo not drawn) [KYS05041, 4-{N-[4-(4-methylbenzenesulfonylamido)benzyl]acetamido}-3-phenyl-2-(piperidine-1-yl)-3,4-dihydroquinazoline], for which, in the assay on Na+ channel, the “selectivity for the calcium channel versus the sodium channel” value was “higher selectivity for the calcium channel than the sodium channel” and the “Inhibitory effect, Na+ channel” value is on record as “n.i.^b”. The inhibition at 10 µM in assay [1] (setting [2]) turned out to be 89.9%. For the same compound, the inhibition at 10 µM in assay [1] (setting [3]) is 89.9%. In addition, the “channel inhibitory effect relative to Mibefradil (comparing IC50 values)” value in assay [1] is “about 3.4 fold”. The IC50 in assay [1] (HEK 293 cells expressing α1G) was determined as 250 nM.

Consider `O=C(CC1c2ccccc2N=C(N2CCCCC2)N1c1ccccc1)NCc1ccc(NS(=O)(=O)c2ccc(F)cc2)cc1` (stereo not drawn) [KYS05042, 4-{N-[4-(4-fluorobenzenesulfonylamido)benzyl]acetamido}-3-phenyl-2-(piperidine-1-yl)-3,4-dihydroquinazoline], for which, in the assay on Na+ channel, the “selectivity for the calcium channel versus the sodium channel” value is “higher selectivity for the calcium channel than the sodium channel” and the “Inhibitory effect, Na+ channel” value is “n.i.^b”. Moreover, the inhibition at 10 µM in assay [1] (setting [2]) was found to be 89%. For the same compound, the inhibition at 10 µM in assay [1] (setting [3]) was 89%. Further, the “channel inhibitory effect relative to Mibefradil (comparing IC50 values)” value in assay [1] is about 4.2 fold. For the same compound, in assay [1] (HEK 293 cells expressing α1G), the half-inhibitory concentration (IC50) came out at 200 nM.
